Data taken from patent US20070142462A1, “Method of Treating Cancer” (The University of Utah, priority 2000, published 2007).

Legend:
Assay type in all cases: cell-based, human
[1] = test system: NF-κB; assay: EMSA of constitutive nuclear NF-κB DNA binding, LNCaP; details: LNCaP prostate carcinoma; catalase 3,000 U/ml for 24 hours
Protocol: (§1) The effect of antioxidants on nuclear activation of NF-κB was studied by incubating near confluent (70%) cell cultures with antioxidant treatments for 1-48 hours. Nuclear protein was harvested, and EMSAs were performed using DNA consensus binding sequences, or nuclear translocation of the p65 component of NF-κB was studied by immunoperoxidase staining, as outlined below.
(§2) Electrophoretic Mobility Shift Assays (EMSAs). Nuclear protein was isolated and DNA binding reactions were performed as previously described in detail, Kennedy et al., Am. J. Respir. Cell Mol. Biol. 19:366-378 (1998). Monolayers were washed twice in cold DPBS and equilibrated 10 min on ice with 0.7 ml cold cytoplasmic extraction buffer, CEB (10 mM Tris, pH 7.9, 60 mM KCl, 1 mM EDTA, 1 mM DTT) with protease inhibitors, PI (1 mM Pefabloc, 50 μg/ml antipain, 1 μg/ml leupeptin, 1 μg/ml pepstatin, 40 μg/ml bestatin, 3 μg/ml E-64 and 100 μg/ml chymostatin). […] DNA-protein binding reactions were performed with 2 μg of nuclear protein (as determined by the Pierce method) and 30-80,000 cpm of ^32P-end-labelled double-stranded DNA probe in 10 mM Tris-HCl, pH 7.5, 50 mM NaCl, 0.5 mM EDTA, 0.5 mM DTT, 1 mM MgCl2, 50 μg/ml poly dI-dC, and 4% glycerol. […] Gels were dried and analyzed by autoradiography at −80° C. using an image intensifier screen. […]

[2] = test system: NF-κB; assay: EMSA of constitutive nuclear NF-κB DNA binding, M1619; details: 24 hours, catalase 3,000 U/ml, NAC 20 mM, Ebselen 25 μM, dicumarol 250 μM
Description: Electrophoretic Mobility Shift Assays (EMSAs). […] J. Respir.

[3] = test system: NF-κB; assay: EMSA of constitutive nuclear NF-κB DNA binding, MDA-MB-453; details: MDA-MB-453 breast carcinoma; catalase 3,000 U/ml for 24 hours
Protocol: as §1, §2

## Catalase
[1]
  constitutive nuclear DNA binding activity for NF-κB: suppressed
[2]
  constitutive NF-κB DNA binding activity in nuclear protein: substantially reduced
[3]
  constitutive nuclear DNA binding activity for NF-κB: suppressed
